Source: patent US8093285B2, “Aminopiperidinyl derivatives and uses thereof” (Roche Palo Alto LLC, priority 2008, dated 2012)

What was measured:
Type in all cases: binding
[1] = biological target: T1, human dopamine transporter (hDAT) (Homo sapiens, UniProt Q01959); test: Screening for compounds active at human dopamine transporter, scintillation proximity assay (SPA); conditions: competition with [3H]-Vanoxerine; HEK-293 cells expressing recombinant hDAT
T1 construct: expressed in transfected cells; Tatsumi et al. 1997
T1 sequence (Q01959 whole entry): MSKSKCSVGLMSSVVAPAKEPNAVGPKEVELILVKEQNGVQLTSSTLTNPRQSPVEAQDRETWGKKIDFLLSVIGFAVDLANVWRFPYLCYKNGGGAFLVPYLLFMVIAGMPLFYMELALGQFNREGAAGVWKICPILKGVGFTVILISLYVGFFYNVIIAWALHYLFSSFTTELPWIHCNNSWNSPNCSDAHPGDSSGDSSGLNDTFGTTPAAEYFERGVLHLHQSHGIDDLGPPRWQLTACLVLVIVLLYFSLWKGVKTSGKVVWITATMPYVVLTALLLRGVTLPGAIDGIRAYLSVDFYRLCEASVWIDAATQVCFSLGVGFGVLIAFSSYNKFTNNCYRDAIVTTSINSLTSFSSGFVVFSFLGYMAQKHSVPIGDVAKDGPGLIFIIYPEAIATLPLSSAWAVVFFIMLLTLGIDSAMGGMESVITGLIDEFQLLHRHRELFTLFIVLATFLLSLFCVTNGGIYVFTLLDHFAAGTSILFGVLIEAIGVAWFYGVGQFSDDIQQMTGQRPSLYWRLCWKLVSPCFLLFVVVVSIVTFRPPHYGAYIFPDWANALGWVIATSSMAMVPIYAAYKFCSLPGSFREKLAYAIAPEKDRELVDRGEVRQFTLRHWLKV
Method: This assay was used to determine the affinity of ligands for the dopamine transporter by competition with [^3H]-Vanoxerine.
HEK-293 cells (Tatsumi et al., Eur. J. Pharmacol. 1997, 30, 249-258) stably expressing recombinant hDAT were maintained with media (DMEM hi glucose with 10% FBS, 300 μg/ml G418 and 2 mM L-Glutamine) and incubated at 37° C. with 5% CO2. Cells were plated four hours prior to experiment by placing approximately 30,000 cells per well (in PBS) on white, opaque Cell-Tak coated 96 well plates. Extra buffer was apriated from the cell plates using an ELx405 plate washer.
^3[H] vanoxerine (GBR 12909) radioligand, specific activity approximately 59 Ci/mmol, stock concentration, 400 nM, and 50 mM Tris-HCl, 300 mM NaCl, (pH 7.4) buffers were used for Scintillation Proximity Assay IC50/Ki determination. […]
The % inhibition was calculated for each compound tested [(Compound CPM at maximum concentration-Non-Specific CPM)/Total CPM*100]. […]
(§1) [formula] where max=total binding, min=non specific binding, x=concentration (M) of the tested compound and n=Hill slope. The inhibition dissociation constant (Ki) of each compound was determined according to the method of Cheng-Prusoff and then converted into negative logarithm (pKi) of the Ki.

[2] = biological target: T2, human serotonin transporter (hSERT) (Homo sapiens, UniProt P31645); test: Screening for human serotonin transporter (hSERT) antagonists, scintillation proximity assay (SPA); conditions: competition with [3H]-Citalopram; membranes of HEK-293 cells expressing recombinant hSERT
T2 construct: expressed in transfected cells; Tatsumi et al. 1997
T2 sequence (P31645 whole entry): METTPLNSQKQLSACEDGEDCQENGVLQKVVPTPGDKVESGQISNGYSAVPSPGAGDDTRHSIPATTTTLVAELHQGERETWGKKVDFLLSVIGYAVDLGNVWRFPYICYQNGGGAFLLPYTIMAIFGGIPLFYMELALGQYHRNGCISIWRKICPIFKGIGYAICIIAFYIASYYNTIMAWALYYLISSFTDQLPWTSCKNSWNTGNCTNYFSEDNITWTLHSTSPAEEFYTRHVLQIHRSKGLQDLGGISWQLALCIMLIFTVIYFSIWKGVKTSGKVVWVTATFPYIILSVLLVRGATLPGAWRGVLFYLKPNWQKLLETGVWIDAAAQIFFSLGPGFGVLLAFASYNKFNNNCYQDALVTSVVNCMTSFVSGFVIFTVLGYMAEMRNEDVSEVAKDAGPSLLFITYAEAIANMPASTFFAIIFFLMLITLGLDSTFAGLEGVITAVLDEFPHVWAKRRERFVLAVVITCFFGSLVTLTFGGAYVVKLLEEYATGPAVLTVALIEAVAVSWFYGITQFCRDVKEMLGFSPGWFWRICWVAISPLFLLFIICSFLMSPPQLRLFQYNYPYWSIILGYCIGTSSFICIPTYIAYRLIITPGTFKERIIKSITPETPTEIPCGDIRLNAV
Method: The screening assay of this example was used to determine the affinity of ligands at the hSERT transporter by competition with [^3H]-Citalopram.
Scintillation Proximity Assay (SPA) works by bringing radioligand within close proximity to the bead's scintillant to stimulate light emission. In this assay, the receptor-containing membranes were pre-coupled to the SPA beads and the binding of the appropriate radioligand to the transporter was measured. The light emission was proportional to the amount of bound radioligand. Unbound radioligand produced no signal as a result of distant proximity to scintillant (lack of energy transfer). […]
(§2) Cell membranes were prepared using a membrane preparation buffer of 50 mM TRIS (pH 7.4). […] After a second centrifugation, the pellet was re-homogenized and brought to a final volume determined during the assay. […]
The % inhibition was calculated for each compound tested [(Compound counts per minute (CPM) at maximum concentration-Non-Specific CPM)/Total CPM*100]. […]
as §1

[3] = biological target: T3, human norepinephrine transporter (hNET) (Homo sapiens, UniProt P23975); test: Screening for compounds active at human norepinephrine transporter (hNET), scintillation proximity assay (SPA); conditions: competition with [3H]-Nisoxetine; membranes of HEK-293 cells expressing recombinant hNET
T3 construct: expressed in transfected cells; Clone: HEK-hNET #2)
T3 sequence (P23975 whole entry): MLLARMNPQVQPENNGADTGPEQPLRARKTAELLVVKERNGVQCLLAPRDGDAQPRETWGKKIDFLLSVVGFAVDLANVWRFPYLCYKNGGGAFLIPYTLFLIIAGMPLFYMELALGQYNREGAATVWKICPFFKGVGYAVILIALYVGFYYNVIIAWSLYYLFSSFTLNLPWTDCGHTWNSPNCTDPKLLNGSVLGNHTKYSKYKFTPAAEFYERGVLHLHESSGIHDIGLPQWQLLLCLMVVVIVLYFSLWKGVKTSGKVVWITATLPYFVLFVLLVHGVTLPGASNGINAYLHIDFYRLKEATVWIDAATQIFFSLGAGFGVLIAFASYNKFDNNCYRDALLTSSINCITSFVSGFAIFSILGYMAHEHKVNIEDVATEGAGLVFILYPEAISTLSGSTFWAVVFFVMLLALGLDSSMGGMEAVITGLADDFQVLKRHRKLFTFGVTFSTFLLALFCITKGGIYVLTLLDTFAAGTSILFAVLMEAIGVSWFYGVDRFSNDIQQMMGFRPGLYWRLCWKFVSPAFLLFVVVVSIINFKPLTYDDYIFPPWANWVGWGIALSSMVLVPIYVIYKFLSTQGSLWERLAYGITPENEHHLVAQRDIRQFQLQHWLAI
Method: This assay was used to determine the affinity of ligands for the hNET transporter by competition with [^3H]-Nisoxetine. As in the hSERT assay of the above example, receptor-containing membranes were pre-coupled to the SPA beads and the binding of the appropriate radioligand to the transporter was measured. The light emission was proportional to the amount of bound radioligand, with unbound radioligand producing no signal.
HEK-293 cells (Tatsumi et al., Eur. J. Pharmacol. 1997, 30, 249-258) stably expressing recombinant hNET (Clone: HEK-hNET #2) were maintained with media (DMEM hi glucose with 10% FBS, 300 μg/ml G418 and 2 mM L-Glutamine) and incubated at 37° C. with 5% CO2. Cells were released from culture flasks using PBS for 1-2 minutes. […]
as §2
^3[H] […] The mixtures were allowed to stand at room temperature for one hour, and were then counted on a Packard TopCount LCS, a generic SPA counting protocol settings (Energy Range: Low, Efficiency Mode: Normal, Region A: 1.50-35.00, Region B: 1.50-256.00, Count Time (min.): 0.40, Background Subtract: none, Half-Life Correction: no, Quench Indicator: tSIS, Platemap blank subtraction: No, Cross talk reduction: Off). […]

`NS(=O)(=O)c1cccc(CN(c2ccc3[nH]ccc3c2)C2CCNCC2)c1` [Compound 69, 3-{[(1H-Indol-5-yl)-piperidin-4-yl-amino]-methyl}-benzenesulfonamide] gave a Ki [1] of roughly 10 nM.

Compound `Fc1cccc(CN(c2ccc3[nH]ncc3c2)C2CCNCC2)c1` [Compound 53, (3-Fluoro-benzyl)-(1H-indazol-5-yl)-piperidin-4-yl-amine] has a Ki [2] of roughly 0.316 nM.

For `COc1cccc(CN(c2ccc3[nH]ncc3c2)C2CCNCC2)c1` [Compound 54, (1H-Indazol-5-yl)-(3-methoxy-benzyl)-piperidin-4-yl-amine], the Ki [3] was roughly 1.58 nM.
